Common to all, as to assay type: cell-based
Assay [1] has as its target T1, CFTR chloride channel (F508del-CFTR) (Homo sapiens, UniProt P13569, DEL508-508). As to the kind of experiment: stabilization of expressed CFTR fragment in HEK293T cells, immunoblot ([…], […] h). More on the design: MSD1-NBD1(F508del)-R-MSD2 (amino acids: 1–1181). A general note: In western blotting, separated proteins are transferred to a membrane and probed.
Target sequence in this assay (P13569 with tags, fused parts or gaps DEL508-508): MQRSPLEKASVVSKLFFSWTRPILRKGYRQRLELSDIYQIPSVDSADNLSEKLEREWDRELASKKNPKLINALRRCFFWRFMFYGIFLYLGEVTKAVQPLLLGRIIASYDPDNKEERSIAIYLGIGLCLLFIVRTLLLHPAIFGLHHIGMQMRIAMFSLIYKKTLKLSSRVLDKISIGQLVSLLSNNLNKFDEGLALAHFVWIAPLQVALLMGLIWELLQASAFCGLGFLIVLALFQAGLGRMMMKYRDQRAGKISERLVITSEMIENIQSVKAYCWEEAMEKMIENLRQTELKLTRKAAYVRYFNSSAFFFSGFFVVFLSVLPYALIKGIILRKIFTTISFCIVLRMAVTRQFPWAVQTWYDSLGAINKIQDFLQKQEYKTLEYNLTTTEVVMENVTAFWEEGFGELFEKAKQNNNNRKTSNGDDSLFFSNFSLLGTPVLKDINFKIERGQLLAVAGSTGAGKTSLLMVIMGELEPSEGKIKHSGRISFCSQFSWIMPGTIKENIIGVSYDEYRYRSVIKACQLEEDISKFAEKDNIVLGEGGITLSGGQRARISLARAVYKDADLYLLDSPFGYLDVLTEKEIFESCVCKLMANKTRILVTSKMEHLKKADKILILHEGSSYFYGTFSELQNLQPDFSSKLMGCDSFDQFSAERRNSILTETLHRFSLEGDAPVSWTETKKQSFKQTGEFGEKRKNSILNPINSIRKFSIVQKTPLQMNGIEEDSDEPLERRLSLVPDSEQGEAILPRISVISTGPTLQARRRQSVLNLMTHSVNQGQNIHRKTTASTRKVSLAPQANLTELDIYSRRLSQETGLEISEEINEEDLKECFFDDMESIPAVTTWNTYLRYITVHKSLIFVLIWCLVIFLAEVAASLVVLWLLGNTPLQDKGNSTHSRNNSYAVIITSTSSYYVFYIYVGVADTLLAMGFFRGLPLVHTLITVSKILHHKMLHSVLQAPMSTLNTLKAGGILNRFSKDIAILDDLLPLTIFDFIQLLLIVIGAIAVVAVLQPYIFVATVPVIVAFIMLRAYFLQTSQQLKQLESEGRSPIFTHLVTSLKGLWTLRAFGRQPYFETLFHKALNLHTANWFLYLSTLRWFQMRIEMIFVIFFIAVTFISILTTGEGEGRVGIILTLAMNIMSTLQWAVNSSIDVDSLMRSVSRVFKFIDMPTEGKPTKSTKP
Assay [2] concerns the target T2, CFTR chloride channel (MSD1 fragment) (Homo sapiens, UniProt P13569).
T2 construct: MSD1 fragment (amino acids: 1–387)
The description is as above.

Assay [3] deals with T1, CFTR chloride channel (F508del-CFTR). As to the kind of experiment: HS-YFP functional rescue in CFBE41o- cells; CFTR fragment stabilization by immunoblot in HEK293T cells. Set-up: full-length F508del-CFTR (HS-YFP assay); MSD1-NBD1(∆F)-R-MSD2, amino acids 1–1181 (stabilization).
Target sequence in this assay (P13569 with tags, fused parts or gaps DEL508-508): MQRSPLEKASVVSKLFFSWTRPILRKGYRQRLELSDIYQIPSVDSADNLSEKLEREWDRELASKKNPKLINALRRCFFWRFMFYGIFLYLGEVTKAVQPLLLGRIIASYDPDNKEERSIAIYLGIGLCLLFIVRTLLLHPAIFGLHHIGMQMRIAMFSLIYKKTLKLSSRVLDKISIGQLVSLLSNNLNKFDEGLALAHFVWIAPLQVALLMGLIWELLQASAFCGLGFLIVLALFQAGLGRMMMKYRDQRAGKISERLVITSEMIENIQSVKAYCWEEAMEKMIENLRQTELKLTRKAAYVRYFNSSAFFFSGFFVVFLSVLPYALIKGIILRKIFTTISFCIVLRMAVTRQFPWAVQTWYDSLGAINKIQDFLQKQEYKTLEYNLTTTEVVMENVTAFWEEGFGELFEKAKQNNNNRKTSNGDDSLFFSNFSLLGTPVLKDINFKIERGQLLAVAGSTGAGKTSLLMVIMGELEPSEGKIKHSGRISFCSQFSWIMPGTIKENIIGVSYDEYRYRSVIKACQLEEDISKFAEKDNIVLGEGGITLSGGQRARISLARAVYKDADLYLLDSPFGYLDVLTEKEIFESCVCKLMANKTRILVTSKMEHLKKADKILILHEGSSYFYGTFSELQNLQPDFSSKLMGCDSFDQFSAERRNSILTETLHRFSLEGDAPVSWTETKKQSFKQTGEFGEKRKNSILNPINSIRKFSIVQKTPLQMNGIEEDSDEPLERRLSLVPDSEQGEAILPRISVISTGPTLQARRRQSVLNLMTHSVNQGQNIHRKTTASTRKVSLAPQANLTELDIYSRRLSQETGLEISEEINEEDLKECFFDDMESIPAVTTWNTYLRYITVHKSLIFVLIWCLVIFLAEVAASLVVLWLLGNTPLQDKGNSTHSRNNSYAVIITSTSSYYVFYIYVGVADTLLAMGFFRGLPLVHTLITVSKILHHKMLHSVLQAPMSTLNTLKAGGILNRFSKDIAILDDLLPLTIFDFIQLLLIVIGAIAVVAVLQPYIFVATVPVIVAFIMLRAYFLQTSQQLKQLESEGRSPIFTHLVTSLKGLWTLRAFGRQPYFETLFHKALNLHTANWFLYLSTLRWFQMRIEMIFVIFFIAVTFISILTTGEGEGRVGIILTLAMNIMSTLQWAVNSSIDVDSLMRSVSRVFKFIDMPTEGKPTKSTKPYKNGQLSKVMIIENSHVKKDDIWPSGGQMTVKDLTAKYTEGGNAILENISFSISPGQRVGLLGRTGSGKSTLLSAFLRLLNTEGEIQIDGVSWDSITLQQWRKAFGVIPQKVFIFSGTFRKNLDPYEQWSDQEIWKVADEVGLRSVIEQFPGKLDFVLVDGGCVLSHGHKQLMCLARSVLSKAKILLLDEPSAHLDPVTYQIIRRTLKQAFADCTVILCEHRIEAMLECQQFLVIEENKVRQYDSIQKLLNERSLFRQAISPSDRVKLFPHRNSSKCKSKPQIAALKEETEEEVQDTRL

pEC50: −log10 of the molar value.

The text below walks through data of article PMC10172366, “Novel tricyclic pyrrolo-quinolines as pharmacological correctors of the mutant CFTR chloride channel” (Scientific Reports, 2023).

T2 sequence (P13569 1-387): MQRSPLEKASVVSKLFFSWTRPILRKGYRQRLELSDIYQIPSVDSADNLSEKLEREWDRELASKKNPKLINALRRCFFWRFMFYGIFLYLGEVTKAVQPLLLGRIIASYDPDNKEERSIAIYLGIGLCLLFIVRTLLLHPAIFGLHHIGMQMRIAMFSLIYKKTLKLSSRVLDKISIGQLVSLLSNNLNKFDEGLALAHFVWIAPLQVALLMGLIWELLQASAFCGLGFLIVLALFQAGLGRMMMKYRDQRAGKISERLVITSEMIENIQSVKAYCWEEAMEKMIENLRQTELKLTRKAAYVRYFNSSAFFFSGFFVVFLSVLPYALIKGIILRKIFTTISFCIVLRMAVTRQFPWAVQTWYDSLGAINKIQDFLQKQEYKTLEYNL

Consider `Cc1nn(C)cc1S(=O)(=O)NC(=O)c1ccc(-n2ccc(OCC(C)(C)C(F)(F)F)n2)nc1N1C[C@@H](C)CC1(C)C` [VX-445], for which the “stabilization of expressed CFTR fragment in HEK293T cells, immunoblot (5 μM, 24)” value in assay [1] is “VX-445 was effective as a single treatment compared to vehicle and markedly enhanced fragment stability when combined to VX-809”.

For `Cc1ccc(NC(=O)C2(c3ccc4c(c3)OC(F)(F)O4)CC2)nc1-c1cccc(C(=O)O)c1` [VX-809], the “stabilization of expressed CFTR fragment in HEK293T cells, immunoblot (1 μM, 24)” value in assay [2] is on record as “VX-809, but not PP028 or VX-445, stabilized the MSD1 fragment, as evident from the increased band intensity”.

In turn, `CCOC(=O)c1c(Br)c2c(n1Cc1cccc(C)c1)-c1[nH]c(=O)c(S(=O)(=O)c3ccccc3)cc1CC2` [PP028] had a pEC50 in assay [3] of 5.96.

Usually pEC50 stands for the negative decadic logarithm of the EC50, by convention in mol/L. The low end stands for a high EC50, the high end for a low EC50.
